We go through three compounds from US20100311714A1, “1H-IMIDAZO[4,5-c]QUINOLINONE COMPOUNDS” (priority 2009, published 2010).

For one test, the target named is T1, PI3K delta (Homo sapiens, UniProt O00329).
T1 construct: for the full-length p110-d subunit are generated and fused by overlapping PCR; His tag (C); made in house; host or cells: baculovirus BV1060; Tn5 (Trichoplusia ni) or TiniPro insect cells
Description: PI3K delta kinase assay (Kinase-Glo luminescence). Format: biochemical. To be noted: read-out: EPK_PI3Kdelta/IC50. Here is the method:
(§1) In a more preferred assay, the kinase reaction is performed in a final volume of 10 μL per well of a low volume non binding CORNING, 384 well black plate (Cat. No. #3676). The final concentrations of ATP and phosphatidyl inositol (PI) in the assay are 1 μM and 10 μg/mL respectively. The reaction is started by the addition of ATP.
(§2) The components of the assay are added per well as follows:
(§3) 50 nL test compounds in 90% DMSO per well, in columns 1-20, 8 concentrations (⅓ and 1/3.33 serial dilution step) in single. • Low control: […] of 90% DMSO in half the wells of columns 23-24 (0.45% in final). • High control: 50 nL of reference compound (e.g. compound of Example 7 in WO 2006/122806) in the other half of columns 23-24 (2.5 μM in final). • Standard: 50 nL of reference compound as just mentioned diluted as the test compounds in columns 21-22 • 20 mL ‘buffer’ are prepared per assay: • 200 μL of 1M TRIS HCl pH7.5 (10 mM in final) • 60 μL of 1M MgCl2 (3 mM in final) • 500 μL of 2M NaCl (50 mM in final) • 100 μL of 10% CHAPS (0.05% in final) • 200 μL of 100 mM DTT (1 mM in final) • 18.94 mL of nanopure water • 10 mL ‘PI’ are prepared per assay: • 200 μL of 1 mg/ml L-alpha-Phosphatidylinositol (Liver Bovine, Avanti Polar Lipids Cat. No. 840042C MW=909.12) prepared in 3% OctylGlucoside (10 μg/ml in final) • 9.8 mL of ‘buffer’ • 10 mL ‘ATP’ are prepared per assay: • 6.7 μL of 3 mM stock of ATP giving a final concentration of 1 μM per well • 10 mL of ‘buffer’ • 2.5 mL of each PI3K construct are prepared per assay in ‘PI’ with the following final concentration: • 10 nM PI3K alfa EMV B1075 • 25 nM beta EMV BV949 • 10 nM delta EMV BV1060 • 150 nM gamma EMV BV950 • 5 μL of ‘PI/PI3K’ are added per well. • 5 μl ‘ATP’ are added per well to start the reaction. • The plates are then incubated at room temperature for 60 minutes (alfa, beta, delta) or 120 minutes (gamma). • The reaction is terminated by the addition of 10 μL Kinase-Glo (Promega Cat. No. #6714). • The assay plates are read after 10 minutes in Synergy 2 reader (BioTek, Vermont USA) with an integration time of 100 milliseconds and sensitivity set to 191. • Output: The High control is around 60′000 counts and the Low control is 30′000 or lower • This luminescence assay gives a useful Z′ ratio between 0.4 and 0.7
PI3Kδ BV-1060 p85(iSH2)-Gly Linker-p110d(Full-Length)-C-Term His Tag
PI3K delta is purified in three chromatographic steps: immobilized metal affinity chromatography on a Ni Sepharose resin (GE Healthcare), gel filtration utilizing a Superdex 200 26/60 column (GE Healthcare), and finally a anion exchange step on a Q-HP column (GE Healthcare). All buffers are chilled to 4° C. and lysis is performed chilled on ice. Column fractionation is performed rapidly at room temperature. Typically frozen insect cells are lysed in a hypertonic lysis buffer and applied to a prepared IMAC column. The resin is washed with 3-5 column volumes of lysis buffer, followed by 3-5 column volumes wash buffer containing 45 mM imidazole, and the target protein is then eluted with a buffer containing 250 mM imidazole. Fractions are analyzed by Coomassie stained SDS-PAGE gels, and fractions containing the target protein are pooled and applied to a prepared GFC column. Fractions from the GFC column are analyzed by Coomassie stained SDS-PAGE gels, and fractions containing the target protein are pooled. The pool from the GFC column is diluted into a low salt buffer and applied to a prepared Q-HP column. The column is washed with low salt buffer until a stable A280 baseline absorbance is achieved, and eluted using a 20 column volume gradient from 0 mM NaCl to 500 mM NaCl. Again, fractions from the Q-HP column are analyzed by Coomassie stained SDS-PAGE gels, and fractions containing the target protein are pooled. The final pool is dialyzed into a storage buffer containing 50% glycerol and stored at −20° C. The final pool is assayed for activity in the phosphoinostitol kinase assay. […]
On the technique in general: Kinase-Glo reads ATP consumption through a luciferase reaction.

The target in another test is T2, mTOR (Homo sapiens, UniProt P42345).
T2 construct: purchased Invitrogen Corporation (Carlsbad/Calif., USA) PV4753
Description: Biochemical assay for m-TOR by TR-FRET. To be noted: read-out: EPK_mTOR/IC50. The method, then:
Biochemical Assay for m-TOR by TR-FRET.
Assay components are purchased from Invitrogen Corporation (Carlsbad/Calif., USA): GFP-4EBP1 (Cat. No. PV4759), Tb3+-α-p4EBP1 [pThr46] Antibody (Cat. No. PV4757), proprietary TR-FRET dilution buffer (Cat. No. PV3574), mTOR protein (Cat. No. PV4753).
50 nL of compound dilutions (final concentration of 10, 3.0, 1.0, 0.3, 0.1, 0.03, 0.01 and 0.003 μM) are dispensed onto black 384-well low volume non-binding polystyrene (Cat. No. NBS#3676, Corning, Lowell/Mass., USA). Then 5 μL of ATP (8 μM final concentration) and GFP-4EBP1 (400 nM final concentration) with 5 μL mTOR proteins (0.5 nM final concentration) are incubated at rt. The standard reaction buffer for the TR-FRET mTOR assay contained 50 mM HEPES pH 7.5, 10 mM MnCl2, 50 mM NaCl, 1 mM EGTA, 1 mM DTT. Reactions were stopped with 10 μL of a mixture of EDTA containing the Tb3+-α-p4EBP1[pT46] detection Ab (0.5 nM) in TR-FRET dilution buffer (proprietary to IVG). Plates are read 15 mins later in a Synergy2 reader using an integration time of 0.2 seconds and a delay of 0.1 seconds. Control for the 100% inhibition of the kinase reaction is performed by replacing the mTOR kinase by the standard reaction buffer. The control for the 0% inhibition is given by the solvent vehicle of the compounds (90% DMSO in H2O). A standard compound is used as a reference compound and included in all assay plates in the form of 16 dilution points in duplicate.
On the technique in general: TR-FRET usually uses a lanthanide donor and a delayed reading to cut background.

Another test has as its target T3, PI3K beta (Homo sapiens, UniProt P42338).
T3 construct: for the full-length p110-b subunit are generated and fused by overlapping PCR; His tag (C); made in house; host or cells: baculovirus BV949; Tn5 (Trichoplusia ni) or TiniPro insect cells
The test can be described thus: PI3K beta kinase assay (Kinase-Glo luminescence). Conditions: read-out: EPK_PI3Kbeta/IC50. Format: biochemical. The method, then:
as §1, §2, §3
PI3Kβ BV-949 p85(iSH2)-Gly linker-r 110b(full-length)-C-term His Tag
PI3K beta is purified in two chromatographic steps: immobilized metal affinity chromatography (IMAC) on a Ni Sepharose resin (GE Healthcare) and gel filtration (GFC) utilizing a Superdex 200 26/60 column (GE Healthcare). All buffers are chilled to 4° C. and lysis is performed chilled on ice. Column fractionation is performed rapidly at room temperature.
(§4) IC50 is determined by a four parameter curve fitting routine that comes along with “excel fit”. A 4 Parameter logistic equation is used to calculate IC50 values (IDBS XLfit) of the percentage inhibition of each compound at 8 concentrations (usually 10, 3.0, 1.0, 0.3, 0.1, 0.030, 0.010 and 0.003 μM). Alternatively, IC50 values are calculated using idbsXLfit model 204, which is a 4 parameter logistic model.

In another test the target is T4, PI3K alfa (Homo sapiens, UniProt P42336).
T4 construct: His tag (C); made in house; host or cells: baculovirus BV1075; Tn5 (Trichoplusia ni) or TiniPro insect cells
The test can be described thus: PI3K alpha kinase assay (Kinase-Glo luminescence). Format: biochemical. To be noted: read-out: EPK_PI3Kalfa/IC50. The method, then:
as §1, §2, §3
Two different constructs, BV 1052 and BV 1075, are used to generate the PI3 Kinase α proteins for compound screening.
PI3K alpha is purified in three chromatographic steps: immobilized metal affinity chromatography on a Ni Sepharose resin (GE Healthcare, belonging to General Electric Company, Fairfield, Conn., USA), gel filtration utilizing a Superdex 200 26/60 column (GE Healthcare), and finally a cation exchange step on a SP-XL column (GE Healthcare). All buffers are chilled to 4° C. and lysis is performed chilled on ice. Column fractionation is performed rapidly at room temperature.
as §4

T3 sequence (P42338 with tags, fused parts or gaps limits assumed): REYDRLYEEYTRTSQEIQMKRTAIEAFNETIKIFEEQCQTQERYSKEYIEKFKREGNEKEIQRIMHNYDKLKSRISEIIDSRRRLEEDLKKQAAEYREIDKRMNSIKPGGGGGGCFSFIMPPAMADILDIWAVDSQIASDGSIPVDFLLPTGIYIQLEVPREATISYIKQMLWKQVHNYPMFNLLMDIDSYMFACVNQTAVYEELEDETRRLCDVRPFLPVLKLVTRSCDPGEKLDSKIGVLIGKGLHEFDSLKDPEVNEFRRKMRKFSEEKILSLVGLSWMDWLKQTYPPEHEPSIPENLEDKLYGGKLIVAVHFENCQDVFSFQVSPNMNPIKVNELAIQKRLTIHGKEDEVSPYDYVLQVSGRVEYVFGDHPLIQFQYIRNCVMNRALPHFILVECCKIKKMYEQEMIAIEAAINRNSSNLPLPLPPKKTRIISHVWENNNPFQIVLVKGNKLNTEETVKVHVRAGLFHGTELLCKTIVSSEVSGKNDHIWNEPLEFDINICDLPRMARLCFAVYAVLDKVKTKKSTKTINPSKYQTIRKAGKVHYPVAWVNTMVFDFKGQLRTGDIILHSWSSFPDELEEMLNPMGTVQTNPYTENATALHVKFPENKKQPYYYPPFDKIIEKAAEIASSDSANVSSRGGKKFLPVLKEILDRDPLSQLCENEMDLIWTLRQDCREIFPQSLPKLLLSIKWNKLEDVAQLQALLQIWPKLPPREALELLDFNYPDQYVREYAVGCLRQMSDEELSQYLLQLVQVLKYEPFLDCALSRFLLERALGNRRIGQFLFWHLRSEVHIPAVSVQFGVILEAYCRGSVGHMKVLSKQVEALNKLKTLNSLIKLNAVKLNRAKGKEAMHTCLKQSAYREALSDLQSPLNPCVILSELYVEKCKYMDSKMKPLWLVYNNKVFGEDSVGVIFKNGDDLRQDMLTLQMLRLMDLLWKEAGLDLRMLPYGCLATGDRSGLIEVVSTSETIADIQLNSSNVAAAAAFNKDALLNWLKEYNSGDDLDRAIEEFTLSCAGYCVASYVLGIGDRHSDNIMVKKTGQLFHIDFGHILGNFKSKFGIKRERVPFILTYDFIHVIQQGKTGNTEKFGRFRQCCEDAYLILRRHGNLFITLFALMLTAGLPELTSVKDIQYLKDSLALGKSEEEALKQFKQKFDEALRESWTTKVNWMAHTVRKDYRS
T1 sequence (O00329 with tags, fused parts or gaps limits assumed): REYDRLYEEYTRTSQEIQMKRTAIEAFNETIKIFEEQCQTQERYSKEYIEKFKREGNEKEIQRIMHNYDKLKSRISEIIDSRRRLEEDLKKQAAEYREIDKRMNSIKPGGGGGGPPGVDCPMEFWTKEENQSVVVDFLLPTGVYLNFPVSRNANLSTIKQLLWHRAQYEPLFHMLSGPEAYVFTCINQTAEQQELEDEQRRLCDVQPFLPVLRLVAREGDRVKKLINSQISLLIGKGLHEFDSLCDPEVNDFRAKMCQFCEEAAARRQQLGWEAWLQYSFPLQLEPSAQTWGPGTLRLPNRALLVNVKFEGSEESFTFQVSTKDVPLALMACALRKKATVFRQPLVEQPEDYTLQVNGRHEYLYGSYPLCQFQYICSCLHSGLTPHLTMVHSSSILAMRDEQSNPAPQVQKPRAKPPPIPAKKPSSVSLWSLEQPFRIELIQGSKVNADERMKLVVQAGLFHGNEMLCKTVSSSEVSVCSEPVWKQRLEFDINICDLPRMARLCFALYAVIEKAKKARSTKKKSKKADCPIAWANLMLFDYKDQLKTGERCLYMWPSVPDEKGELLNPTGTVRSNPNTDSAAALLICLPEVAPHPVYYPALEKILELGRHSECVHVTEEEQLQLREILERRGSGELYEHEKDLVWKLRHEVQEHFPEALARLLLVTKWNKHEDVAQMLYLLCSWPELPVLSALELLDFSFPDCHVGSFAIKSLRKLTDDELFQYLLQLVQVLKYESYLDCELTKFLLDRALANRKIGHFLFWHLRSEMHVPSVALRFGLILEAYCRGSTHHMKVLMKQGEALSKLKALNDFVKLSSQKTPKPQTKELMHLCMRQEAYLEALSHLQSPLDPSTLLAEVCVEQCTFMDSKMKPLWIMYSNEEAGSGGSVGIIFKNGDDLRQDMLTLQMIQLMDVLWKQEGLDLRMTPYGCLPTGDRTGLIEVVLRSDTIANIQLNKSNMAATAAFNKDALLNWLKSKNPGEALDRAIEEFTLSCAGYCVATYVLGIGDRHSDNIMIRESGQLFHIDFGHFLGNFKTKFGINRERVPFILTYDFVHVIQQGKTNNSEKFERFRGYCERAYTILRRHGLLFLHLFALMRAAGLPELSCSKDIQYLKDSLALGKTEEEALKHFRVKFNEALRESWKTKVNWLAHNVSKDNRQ
T4 sequence (P42336 with tags, fused parts or gaps limits assumed): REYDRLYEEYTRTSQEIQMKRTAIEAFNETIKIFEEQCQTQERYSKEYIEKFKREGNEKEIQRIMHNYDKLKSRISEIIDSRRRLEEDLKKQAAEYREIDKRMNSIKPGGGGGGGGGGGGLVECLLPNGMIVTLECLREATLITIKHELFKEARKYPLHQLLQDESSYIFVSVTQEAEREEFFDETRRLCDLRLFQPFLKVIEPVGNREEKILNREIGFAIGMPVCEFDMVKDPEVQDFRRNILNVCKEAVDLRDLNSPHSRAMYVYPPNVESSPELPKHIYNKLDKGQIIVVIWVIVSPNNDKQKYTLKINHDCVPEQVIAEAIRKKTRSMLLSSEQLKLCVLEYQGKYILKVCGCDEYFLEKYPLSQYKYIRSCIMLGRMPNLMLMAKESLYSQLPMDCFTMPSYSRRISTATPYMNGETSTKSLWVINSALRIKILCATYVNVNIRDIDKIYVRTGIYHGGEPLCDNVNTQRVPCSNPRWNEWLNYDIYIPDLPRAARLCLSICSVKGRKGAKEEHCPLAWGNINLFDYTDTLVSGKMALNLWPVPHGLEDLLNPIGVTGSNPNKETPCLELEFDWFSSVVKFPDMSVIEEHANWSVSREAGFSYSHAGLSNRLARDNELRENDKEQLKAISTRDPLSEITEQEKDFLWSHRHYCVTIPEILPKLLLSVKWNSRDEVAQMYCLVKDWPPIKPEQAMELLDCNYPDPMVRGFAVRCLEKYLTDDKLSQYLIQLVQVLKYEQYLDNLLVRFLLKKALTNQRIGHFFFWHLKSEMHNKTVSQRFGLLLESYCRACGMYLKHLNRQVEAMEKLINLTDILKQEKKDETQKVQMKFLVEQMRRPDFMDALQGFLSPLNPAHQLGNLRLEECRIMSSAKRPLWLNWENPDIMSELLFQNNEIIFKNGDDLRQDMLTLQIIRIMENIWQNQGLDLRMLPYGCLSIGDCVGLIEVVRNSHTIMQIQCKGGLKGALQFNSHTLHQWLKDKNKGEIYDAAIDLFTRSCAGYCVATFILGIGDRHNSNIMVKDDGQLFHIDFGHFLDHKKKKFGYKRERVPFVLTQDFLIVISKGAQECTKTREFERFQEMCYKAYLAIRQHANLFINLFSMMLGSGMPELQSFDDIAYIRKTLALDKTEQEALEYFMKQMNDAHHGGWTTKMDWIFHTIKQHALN
T2 sequence (P42345 1360-2549 limits assumed): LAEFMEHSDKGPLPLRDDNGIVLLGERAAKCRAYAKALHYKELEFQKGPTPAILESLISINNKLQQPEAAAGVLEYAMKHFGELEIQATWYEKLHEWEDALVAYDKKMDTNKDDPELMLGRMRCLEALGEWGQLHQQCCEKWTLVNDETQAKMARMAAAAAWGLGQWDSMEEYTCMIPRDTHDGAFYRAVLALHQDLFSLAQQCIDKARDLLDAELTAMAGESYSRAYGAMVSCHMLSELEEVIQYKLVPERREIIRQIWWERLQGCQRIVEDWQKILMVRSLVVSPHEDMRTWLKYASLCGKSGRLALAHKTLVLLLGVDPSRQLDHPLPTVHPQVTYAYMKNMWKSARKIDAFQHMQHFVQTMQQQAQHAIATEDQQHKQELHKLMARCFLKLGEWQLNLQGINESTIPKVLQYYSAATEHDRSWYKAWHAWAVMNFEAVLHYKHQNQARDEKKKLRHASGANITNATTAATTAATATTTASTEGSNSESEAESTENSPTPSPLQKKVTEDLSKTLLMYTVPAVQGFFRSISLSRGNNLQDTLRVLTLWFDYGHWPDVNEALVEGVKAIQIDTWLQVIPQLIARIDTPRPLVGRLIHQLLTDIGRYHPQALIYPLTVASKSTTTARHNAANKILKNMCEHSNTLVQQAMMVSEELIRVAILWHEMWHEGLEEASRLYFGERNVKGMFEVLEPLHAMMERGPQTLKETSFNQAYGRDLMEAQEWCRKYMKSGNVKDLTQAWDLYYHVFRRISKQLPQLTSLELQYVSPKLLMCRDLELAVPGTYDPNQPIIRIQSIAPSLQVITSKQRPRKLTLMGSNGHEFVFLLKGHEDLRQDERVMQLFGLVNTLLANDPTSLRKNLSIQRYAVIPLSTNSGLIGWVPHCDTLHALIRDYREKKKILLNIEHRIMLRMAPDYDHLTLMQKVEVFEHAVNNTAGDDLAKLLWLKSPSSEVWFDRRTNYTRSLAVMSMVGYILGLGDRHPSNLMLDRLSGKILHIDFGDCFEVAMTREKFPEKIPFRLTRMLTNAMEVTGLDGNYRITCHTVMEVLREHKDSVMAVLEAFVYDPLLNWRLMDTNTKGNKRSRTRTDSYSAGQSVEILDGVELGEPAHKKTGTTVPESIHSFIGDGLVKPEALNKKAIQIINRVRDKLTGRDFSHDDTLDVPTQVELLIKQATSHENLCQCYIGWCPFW

Turning to `CCNc1ncc(-c2ccc3ncc4c(c3c2)n(-c2ccc(N3CC[C@@H](O)C3)nc2C)c(=O)n4C)cn1` [Example 34.3, 8-(2-Ethylamino-pyrimidin-5-yl)-1-[6-((R)-3-hydroxy-pyrrolidin-1-yl)-2-methyl-pyridin-3-yl]-3-methyl-1,3-dihydro-imidazo[4,5-c]quinolin-2-one], the IC50 on PI3K delta was 18 nM; at mTOR it was 11 nM; at PI3K beta, 416 nM; at PI3K alfa, 45 nM.
On the same counts, the results for `COc1cc(-c2ccc3ncc4c(c3c2)n(-c2ccc(N3CC(F)(F)C(F)(F)C3)nc2C)c(=O)n4C)cnc1CO` [Example 35.3, 8-(6-Hydroxymethyl-5-methoxy-pyridin-3-yl)-3-methyl-1-[2-methyl-6-(3,3,4,4-tetrafluoro-pyrrolidin-1-yl)-pyridin-3-yl]-1,3-dihydro-imidazo[4,5-c]quinolin-2-one] are 10 nM, 175 nM, 48.7 nM and 14 nM.
On the same counts, the results for `Cc1nc(N2CC(F)(F)C(F)(F)C2)ccc1-n1c(=O)n(C)c2cnc3ccc(-c4cnc(N)c(CO)c4)cc3c21` [Example 35.4, 8-(6-Amino-5-hydroxymethyl-pyridin-3-yl)-3-methyl-1-[2-methyl-6-(3,3,4,4-tetrafluoro-pyrrolidin-1-yl)-pyridin-3-yl]-1,3-dihydro-imidazo[4,5-c]quinolin-2-one] are 21 nM, 66 nM, 207 nM and 39 nM.
